Activity calls are given as the source filed them. No cut-off for these calls is given here.
Key:
SK-MEL-5 = experiment: Growth inhibition of human SK-MEL-5 cells assessed as cell growth at 10 uM after 48 hrs by sulforhodamine B assay relative to control; format: functional; details: SK-MEL-5, 48 h, read-out: Activity
MCF7 [1] = experiment: Growth inhibition of human MCF7 cells assessed as cell growth at 10 uM after 48 hrs by sulforhodamine B assay relative to control; format: functional; details: MCF7, 48 h, read-out: Activity
SF-539 = experiment: Growth inhibition of human SF539 cells assessed as cell growth at 10 uM after 48 hrs by sulforhodamine B assay relative to control; format: functional; details: SF-539, 48 h, read-out: Activity
NCI-H226 = experiment: Growth inhibition of human NCI-H226 cells assessed as cell growth at 10 uM after 48 hrs by sulforhodamine B assay relative to control; format: functional; details: NCI-H226, 48 h, read-out: Activity
HCT-15 = experiment: Growth inhibition of human HCT15 cells assessed as cell growth at 10 uM after 48 hrs by sulforhodamine B assay relative to control; format: functional; details: HCT-15, 48 h, read-out: Activity
T47D = experiment: Growth inhibition of human T47D cells assessed as cell growth at 10 uM after 48 hrs by sulforhodamine B assay relative to control; format: functional; details: read-out: Activity
LOX IMVI = experiment: Growth inhibition of human LOXIMVI cells assessed as cell growth at 10 uM after 48 hrs by sulforhodamine B assay relative to control; format: functional; details: read-out: Activity
OVCAR-3 = experiment: Growth inhibition of human OVCAR3 cells assessed as cell growth at 10 uM after 48 hrs by sulforhodamine B assay relative to control; format: functional; details: OVCAR-3, 48 h, read-out: Activity
SNB-75 = experiment: Growth inhibition of human SNB75 cells assessed as cell growth at 10 uM after 48 hrs by sulforhodamine B assay relative to control; format: functional; details: SNB-75, 48 h, read-out: Activity
K562 = experiment: Growth inhibition of human K562 cells assessed as cell growth at 10 uM after 48 hrs by sulforhodamine B assay relative to control; format: functional; details: K562, 48 h, read-out: Activity
ACHN = experiment: Growth inhibition of human ACHN cells assessed as cell growth at 10 uM after 48 hrs by sulforhodamine B assay relative to control; format: functional; details: read-out: Activity
SNB-19 = experiment: Growth inhibition of human SNB19 cells assessed as cell growth at 10 uM after 48 hrs by sulforhodamine B assay relative to control; format: functional; details: SNB-19, 48 h, read-out: Activity
MDA-MB-468 = experiment: Growth inhibition of human MDA-MB-468 cells assessed as cell growth at 10 uM after 48 hrs by sulforhodamine B assay relative to control; format: functional; details: MDA-MB-468, 48 h, read-out: Activity
SK-OV-3 = experiment: Growth inhibition of human SKOV3 cells assessed as cell growth at 10 uM after 48 hrs by sulforhodamine B assay relative to control; format: functional; details: SK-OV-3, 48 h, read-out: Activity
MOLT-4 = experiment: Growth inhibition of human MOLT4 cells assessed as cell growth at 10 uM after 48 hrs by sulforhodamine B assay relative to control; format: functional; details: MOLT-4, 48 h, read-out: Activity
SN12C = experiment: Growth inhibition of human SN12C cells assessed as cell growth at 10 uM after 48 hrs by sulforhodamine B assay relative to control; format: functional; details: read-out: Activity
UACC-62 = experiment: Growth inhibition of human UACC62 cells assessed as cell growth at 10 uM after 48 hrs by sulforhodamine B assay relative to control; format: functional; details: UACC-62, 48 h, read-out: Activity
SW-620 = experiment: Growth inhibition of human SW620 cells assessed as cell growth at 10 uM after 48 hrs by sulforhodamine B assay relative to control; format: functional; details: SW-620, 48 h, read-out: Activity
HOP-62 = experiment: Growth inhibition of human HOP62 cells assessed as cell growth at 10 uM after 48 hrs by sulforhodamine B assay relative to control; format: functional; details: HOP-62, 48 h, read-out: Activity
HT-29 = experiment: Growth inhibition of human HT-29 cells assessed as cell growth at 10 uM after 48 hrs by sulforhodamine B assay relative to control; format: functional; details: HT-29, 48 h, read-out: Activity
NCI-H322M = experiment: Growth inhibition of human NCI-H322M cells assessed as cell growth at 10 uM after 48 hrs by sulforhodamine B assay relative to control; format: functional; details: read-out: Activity
OVCAR-5 = experiment: Growth inhibition of human OVCAR5 cells assessed as cell growth at 10 uM after 48 hrs by sulforhodamine B assay relative to control; format: functional; details: OVCAR-5, 48 h, read-out: Activity
COLO 205 = experiment: Growth inhibition of human COLO205 cells assessed as cell growth at 10 uM after 48 hrs by sulforhodamine B assay relative to control; format: functional; details: COLO 205, 48 h, read-out: Activity
SK-MEL-28 = experiment: Growth inhibition of human SK-MEL-28 cells assessed as cell growth at 10 uM after 48 hrs by sulforhodamine B assay relative to control; format: functional; details: SK-MEL-28, 48 h, read-out: Activity
MDA-MB-231 = experiment: Growth inhibition of human MDA-MB-231 cells assessed as cell growth at 10 uM after 48 hrs by sulforhodamine B assay relative to control; format: functional; details: MDA-MB-231, 48 h, read-out: Activity
NCI-H23 = experiment: Growth inhibition of human NCI-H23 cells assessed as cell growth at 10 uM after 48 hrs by sulforhodamine B assay relative to control; format: functional; details: NCI-H23, 48 h, read-out: Activity
HepG2 [2] = experiment: Induction of apoptosis in human HepG2 cells assessed as early apoptotic cells at IC50 after 24 hrs by Annexin V-FITC/propidium iodide staining-based flow cytometric analysis (reference value: […]); format: functional
HepG2 [3] = experiment: Induction of ROS generation in human HepG2 cells at IC50 after 5 to 6 hrs by DCFDA staining-based spectroflourimetric analysis; format: functional, cell-based
HepG2 [4] = experiment: Induction of apoptosis in human HepG2 cells assessed as necrotic cells at IC50 after 24 hrs by Annexin V-FITC/propidium iodide staining-based flow cytometric analysis (reference value: […]); format: functional
MCF7 [5] = experiment: Induction of ROS generation in human MCF7 cells at IC50 after 5 to 6 hrs by DCFDA staining-based spectroflourimetric analysis; format: functional, cell-based
MCF7 [6] = experiment: Antiproliferative activity against human MCF7 cells assessed as cell viability after 48 hrs by MTT assay; details: MCF7, 48 h
[7] = target: 5'-AMP-activated protein kinase subunit beta-1 (Homo sapiens) (UniProt Q9Y478); experiment: Inhibition of AMPKB1 (unknown origin) at 10 uM after 60 mins by ADP-Glo luminescence assay
MDA-MB-435S = experiment: cells; details: Homo sapiens, 48 h
Description: Antiproliferative activity against human MDA-MB-435S cells assessed as cell viability after 48 hrs by MTT assay

HepG2 [8] = experiment: Induction of apoptosis in human HepG2 cells assessed as viable cells at IC50 after 24 hrs by Annexin V-FITC/propidium iodide staining-based flow cytometric analysis (reference value: 97.6%); format: functional

Chain of 5'-AMP-activated protein kinase subunit beta-1 (Homo sapiens) (Q9Y478 whole entry): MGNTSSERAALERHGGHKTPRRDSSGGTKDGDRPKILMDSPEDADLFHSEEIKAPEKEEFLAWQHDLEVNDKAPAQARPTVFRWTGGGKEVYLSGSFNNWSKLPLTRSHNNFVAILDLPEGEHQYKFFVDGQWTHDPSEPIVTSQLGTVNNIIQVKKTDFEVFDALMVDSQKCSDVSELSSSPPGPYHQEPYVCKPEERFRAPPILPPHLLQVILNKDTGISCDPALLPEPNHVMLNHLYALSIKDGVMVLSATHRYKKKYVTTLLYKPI

SMILES | growth at 10 µM (SK-MEL-5) | growth at 10 µM (MCF7 [1]) | growth at 10 µM (SF-539) | growth at 10 µM (NCI-H226) | growth at 10 µM (HCT-15) | growth at 10 µM (T47D) | growth at 10 µM (LOX IMVI) | growth at 10 µM (OVCAR-3) | growth at 10 µM (SNB-75) | growth at 10 µM (K562) | growth at 10 µM (ACHN) | growth at 10 µM (SNB-19) | growth at 10 µM (MDA-MB-468) | growth at 10 µM (SK-OV-3) | growth at 10 µM (MOLT-4) | growth at 10 µM (SN12C) | growth at 10 µM (UACC-62) | growth at 10 µM (SW-620) | growth at 10 µM (HOP-62) | growth at 10 µM (HT-29) | also measured
COc1ccc(Cn2cc(C(=O)N/N=C3/C(=O)Nc4c(F)cccc43)nn2)cc1 | 99.3% | 94.1% | 92.7% | 91.9% | 99.5% | 66.8% | 97.8% | 111% | 90.1% | 88% | 86.4% | 94.2% | 89.6% | 102% | 96.5% | 94.8% | 89.3% | 92.7% | 98.4% | 86.5% | growth at 10 µM (NCI-H322M): 97.5%; growth at 10 µM (OVCAR-5): 94.8%; growth at 10 µM (COLO 205): 95%; growth at 10 µM (SK-MEL-28): 104%; growth at 10 µM (MDA-MB-231): 96.3%; growth at 10 µM (NCI-H23): 90.1%
COc1ccc(Cn2cc(C(=O)N/N=C3/C(=O)Nc4ccc(Cl)cc43)nn2)cc1 | 96.7% | 91.5% | 106% | 96.8% | 109% | 101% | 108% | 109% | 115% | 91.2% | 107% | 98.5% | 97.2% | 119% | 90.6% | 101% | 101% | 99.7% | 112% | 93.7% | growth at 10 µM (NCI-H322M): 104%; growth at 10 µM (OVCAR-5): 114%; growth at 10 µM (COLO 205): 117%; growth at 10 µM (SK-MEL-28): 113%; growth at 10 µM (MDA-MB-231): 113%; growth at 10 µM (NCI-H23): 104%
COc1ccc(Cn2cc(C(=O)N/N=C3/C(=O)Nc4ccc(F)c(Cl)c43)nn2)cc1 | 99.9% | 91.8% | 111% | 93.2% | 113% | 110% | 100% | 105% | 103% | 90.8% | 111% | 101% | 108% | 116% | 96.8% | 103% | 108% | 106% | 112% | 98% | growth at 10 µM (NCI-H322M): 105%; growth at 10 µM (OVCAR-5): 122%; growth at 10 µM (COLO 205): 115%; growth at 10 µM (SK-MEL-28): 115%; growth at 10 µM (MDA-MB-231): 109%; growth at 10 µM (NCI-H23): 98%
COc1ccc(Cn2cc(C(=O)N/N=C3/C(=O)Nc4c(C)cccc43)nn2)cc1 | 93.8% | 84.9% | 80.1% | 75.1% | 68% | 81% | 75.3% | 46.7% | 27.3% | 63.2% | 38.2% | 97.5% | 89.2% | 110% | 83.5% | 62.1% | 74.1% | 57.5% | 106% | 67.5% | Activity (HepG2 [2]): 37.3%; Activity (HepG2 [3]): Active; Activity (HepG2 [4]): 2.11%; Activity (MCF7 [5]): Active; IC50 (MCF7 [6]): 6.22 µM; inhibition [7]: inactive; IC50 (MDA-MB-435S): 9.94 µM; growth at 10 µM (NCI-H322M): 89.6%; Activity (HepG2 [8]): 59.4%; growth at 10 µM (OVCAR-5): 93.6%; growth at 10 µM (COLO 205): 108%; growth at 10 µM (SK-MEL-28): 94.9%; growth at 10 µM (MDA-MB-231): 51%; growth at 10 µM (NCI-H23): 89.1%
COc1ccc(Cn2cc(C(=O)N/N=C3/C(=O)Nc4c(Cl)cccc43)nn2)cc1 | 101% | 84.3% | 108% | 102% | 107% | 100% | 93.8% | 113% | 82% | 89.2% | 111% | 93.6% | 98.6% | 113% | 84.8% | 95.8% | 102% | 99.7% | 110% | 97% | growth at 10 µM (NCI-H322M): 101%; growth at 10 µM (OVCAR-5): 123%; growth at 10 µM (COLO 205): 114%; growth at 10 µM (SK-MEL-28): 115%; growth at 10 µM (MDA-MB-231): 98.5%; growth at 10 µM (NCI-H23): 99.3%

From ChEMBL document CHEMBL4411296, “Design and development of Isatin-triazole hydrazones as potential inhibitors of microtubule affinity-regulating kinase 4 for the therapeutic management of cell proliferation and metastasis” (Eur J Med Chem, 2019)
